Data taken from ChEMBL document CHEMBL4270488, “Antibacterial Compounds from Marine Bacteria, 2010-2015” (J Nat Prod, 2017).
≈ marks a conversion by molar mass, not a printed value. *1 amine or outer side, *2 acyl side, *3 side chain or, on linkers, in order; H or OH if unused. Where a SMILES comes first, the peptide text is derived from it. Bridges are numbered along the chain shown (N, C = ends). Roman numbers before positions name the chains, in order. [ ]: non-standard residue; d: D form. Actinocin(1to9) = Cc1c2oc3c(C)ccc(C(=O)[*:2])c3nc-2c(C(=O)[*:1])c(N)c1=O; Pro(4-oxo) = O=C1CN[C@H](C(=O)O)C1; NMeV = CN[C@H](C(=O)O)C(C)C; Sar = CNCC(=O)O

Tests used:
Staphylococcus aureus [1] = experiment: Antibacterial activity against methicillin-resistant Staphylococcus aureus ATCC 43300 measured after overnight incubation by microdilution method; assay type: functional
Staphylococcus aureus [2] = experiment: Antibacterial activity against Staphylococcus aureus UST950701-005 measured after overnight incubation by microdilution method; assay type: functional
[3] = test system: Staphylococcus haemolyticus; experiment: Antibacterial activity against Staphylococcus haemolyticus UST950701-004 measured after overnight incubation by microdilution method; assay type: functional
Bacillus subtilis [4] = experiment: Antibacterial activity against Bacillus subtilis 769 measured after overnight incubation by microdilution method; assay type: functional
Staphylococcus aureus [5] = experiment: Antibacterial activity against Staphylococcus aureus incubated for 24 hrs by standard broth dilution assay; assay type: functional
Pseudomonas aeruginosa [6] = experiment: Antibacterial activity against Pseudomonas aeruginosa incubated for 24 hrs by standard broth dilution assay; assay type: functional
Escherichia coli = experiment: Antibacterial activity against Escherichia coli incubated for 24 hrs by standard broth dilution assay; assay type: functional
Bacillus subtilis [7] = experiment: Antibacterial activity against Bacillus subtilis incubated for 24 hrs by standard broth dilution assay; assay type: functional
Staphylococcus aureus [8] = experiment: Antibacterial activity against Staphylococcus aureus ATCC 29213; assay type: functional
Bacillus subtilis [9] = experiment: Antibacterial activity against Bacillus subtilis CMCC63501; assay type: functional
[10] = test system: Mycobacterium tuberculosis; experiment: Antibacterial activity against Mycobacterium tuberculosis H37Rv ATCC 27294 incubated for 10 days by GFP based fluorescence assay; assay type: functional; conditions: H37Rv ATCC 27294, 240 h
[11] = test system: Yersinia pseudotuberculosis; experiment: Inhibition of type 3 secretion system protein secretion in Yersinia pseudotuberculosis at 30 ug/ml incubated for 2 hrs by SDS-PAGE and densitometric analysis
Pseudomonas aeruginosa [12] = experiment: Antibacterial activity against Pseudomonas aeruginosa by broth dilution assay; assay type: functional
[13] = Antibacterial activity Bacillus pumilus against by broth dilution assay; assay type: functional

Compound: COc1ccc2oc3c4c(c(O)c(O)c3c(=O)c2c1O)CCc1cc2c(c(O)c1-4)C(=O)N1[C@@](C)(C2)OC(=O)[C@]1(C)CO
- MIC (Staphylococcus aureus [1]): ≤ 1 µg/mL
- MIC (Staphylococcus aureus [2]): ≤ 1 µg/mL
- MIC [3]: ≤ 1 µg/mL
- MIC (Bacillus subtilis [4]): ≤ 1 µg/mL

Compound: C[C@@H]1CCC/C=C/[C@@H]2O[C@@H](C/C=C\C=C\[C@H](O[C@@H]3O[C@H](CO)[C@@H](O)[C@H](O)[C@H]3O)C/C=C/C=C\C(=O)O1)C[C@@H](O)[C@H]2O
- MIC (Staphylococcus aureus [5]): 0.02 to 0.13 µg/mL (≈ 0.0344 to 0.224 µM)
- MIC (Pseudomonas aeruginosa [6]): 0.02 to 0.13 µg/mL (≈ 0.0344 to 0.224 µM)
- MIC (Escherichia coli): 0.02 to 0.13 µg/mL (≈ 0.0344 to 0.224 µM)
- MIC (Bacillus subtilis [7]): 0.02 to 0.13 µg/mL (≈ 0.0344 to 0.224 µM)

Compound: COC(=O)N[C@H]1[C@@H](C)O[C@@H](O[C@H]2C/C=C(\C)[C@@H]3C=C[C@@H]4[C@@H](O[C@H]5C[C@@H](O[C@H]6C[C@@H](O)[C@@H](O[C@@H]7C[C@@H](O)[C@@H](OC)[C@H](C)O7)[C@H](C)O6)[C@@H](O)[C@H](C)O5)[C@@H](C)C[C@H](C)[C@H]4[C@]3(C)C(=O)C3=C(O)[C@@]4(C[C@@H](C)C(C=O)=C[C@H]4/C=C/2C)OC3=O)C[C@]1(C)[N+](=O)[O-]
- MIC (Staphylococcus aureus [8]): 6.2 to 50 µg/mL (≈ 5.23 to 42.2 µM)
- MIC (Bacillus subtilis [9]): 1.6 to 3.1 µg/mL (≈ 1.35 to 2.62 µM)

Compound: Cc1c2oc3c(C)ccc(C(=O)N[C@@H]4C(=O)N[C@H](C(C)C)C(=O)N5CCC[C@H]5C(=O)N(C)CC(=O)N(C)[C@@H](C(C)C)C(=O)O[C@@H]4C)c3nc-2c(C(=O)N[C@@H]2C(=O)N[C@H](C(C)C)C(=O)N3CC(=O)C[C@H]3C(=O)N(C)CC(=O)N(C)[C@@H](C(C)C)C(=O)O[C@@H]2C)c(N)c1=O (I: T[dV][Pro(4-oxo)][Sar][NMeV] / II: T[dV]P[Sar][NMeV]; ester I:1-I:C, II:1-II:C; linker I:N-II:N via Actinocin(1to9))
- MIC [10]: 1 to 8 µg/mL (≈ 0.788 to 6.3 µM)

Compound: CC1(C)S[C@@H]2[C@H](NC(=O)[C@H](N)c3ccccc3)C(=O)N2[C@H]1C(=O)O [AMPICILLIN]
- MIC (Bacillus subtilis [9]): 1.6 to 3.1 µg/mL (≈ 4.58 to 8.87 µM)

Compound: C/C=C(\C)[C@H](C)[C@H](C)/C=C(C)/C=C/C/C(C)=C/Cc1cc(O)cc(OC)n1
- inhibition [11]: 45%

Compound: C/C=C(\C)[C@H](O)[C@H](C)/C=C(C)/C=C/C/C(C)=C/Cc1nc(OC)c(OC)c(O)c1C
- inhibition [11]: 65%

Compound: COc1ccc2oc3c4c(c(O)c(O)c3c(=O)c2c1O)CCc1cc2c(c(O)c1-4)C(=O)N1[C@@](C)(CO)C(=O)O[C@@]1(C)C2
- MIC (Staphylococcus aureus [1]): ≤ 1 µg/mL
- MIC (Staphylococcus aureus [2]): ≤ 1 µg/mL
- MIC [3]: ≤ 1 µg/mL
- MIC (Bacillus subtilis [4]): ≤ 1 µg/mL

Compound: CN(C)[C@@H]1C(O)=C(C(N)=O)C(=O)[C@@]2(O)C(O)=C3C(=O)c4c(O)cccc4[C@@](C)(O)[C@H]3C[C@@H]12 [TETRACYCLINE]
- MIC (Pseudomonas aeruginosa [12]): 40 to 80 µg/mL (≈ 90 to 180 µM)
- MIC [13]: 40 to 80 µg/mL (≈ 90 to 180 µM)

Compound: CCCCCCCCCCCC(=O)N(CCO)CCO
- MIC (Staphylococcus aureus [5]): 0.02 to 0.13 µg/mL (≈ 0.0696 to 0.452 µM)
- MIC (Pseudomonas aeruginosa [6]): 0.02 to 0.13 µg/mL (≈ 0.0696 to 0.452 µM)
- MIC (Escherichia coli): 0.02 to 0.13 µg/mL (≈ 0.0696 to 0.452 µM)
- MIC (Bacillus subtilis [7]): 0.02 to 0.13 µg/mL (≈ 0.0696 to 0.452 µM)

Compound: C[C@@H]1CCC/C=C/[C@@H]2O[C@H](C[C@@H](O)C/C=C\C=C\[C@H](O[C@@H]3O[C@H](CO)[C@@H](O)[C@H](O)[C@H]3O)C/C=C/C=C\C(=O)O1)[C@H]2O
- MIC (Staphylococcus aureus [5]): 0.02 to 0.13 µg/mL (≈ 0.0344 to 0.224 µM)
- MIC (Pseudomonas aeruginosa [6]): 0.02 to 0.13 µg/mL (≈ 0.0344 to 0.224 µM)
- MIC (Escherichia coli): 0.02 to 0.13 µg/mL (≈ 0.0344 to 0.224 µM)
- MIC (Bacillus subtilis [7]): 0.02 to 0.13 µg/mL (≈ 0.0344 to 0.224 µM)

Compound: Cc1c2oc3c(C)ccc(C(=O)N[C@@H]4C(=O)N[C@H](C(C)C)C(=O)N5CCC[C@H]5C(=O)N(C)CC(=O)N(C)[C@@H](C(C)C)C(=O)O[C@@H]4C)c3nc-2c(C(=O)N[C@@H]2C(=O)N[C@H](C(C)C)C(=O)N3CC(O)C[C@H]3C(=O)N(C)CC(=O)N(C)[C@@H](C(C)C)C(=O)O[C@@H]2C)c(N)c1=O (some centres not stated)
- MIC [10]: 1 to 8 µg/mL (≈ 0.787 to 6.29 µM)

Compound: Cc1c2oc3c(C)ccc(C(=O)N[C@@H]4C(=O)N[C@H](C(C)C)C(=O)N5CCC[C@H]5C(=O)N(C)CC(=O)N(C)[C@@H](C(C)C)C(=O)O[C@@H]4C)c3nc-2c(C(=O)N[C@@H]2C(=O)N[C@H](C(C)C)C(=O)N3CCC[C@H]3C(=O)N(C)CC(=O)N(C)[C@@H](C(C)C)C(=O)O[C@@H]2C)c(N)c1=O [DACTINOMYCIN] (I: T[dV]P[Sar][NMeV] / II: T[dV]P[Sar][NMeV]; ester I:1-I:C, II:1-II:C; linker I:N-II:N via Actinocin(1to9))
- MIC [10]: 1 to 8 µg/mL (≈ 0.797 to 6.37 µM)

Compound: CCn1cc(C(=O)O)c(=O)c2ccc(C)nc21 [NALIDIXIC ACID]
- MIC (Pseudomonas aeruginosa [12]): 1250 to 1500 µg/mL (≈ 5380 to 6460 µM)
- MIC [13]: 1250 to 1500 µg/mL (≈ 5380 to 6460 µM)
